# Data as given in patent US7910612B2, “4-oxy-N-[1,3,4]-thiadiazol-2-yl-benzene sulfonamides, pharmaceutical compositions and methods for their therapeutic use” (Sanofi-Aventis, priority 2005, dated 2011).
# How the values were obtained:
# [1] = target: T1, human PPARdelta (Homo sapiens, UniProt Q03181); experiment: cellular PPARdelta assay (stably transfected HEK luciferase reporter cell line); format: cell-based
# T1 construct: amino acids S139-Y441; expressed in transfected cells; host or cells: HEK (human embryo kidney) cells, stably transfected, pcDNA3 vector
# T1 sequence (Q03181 139-441): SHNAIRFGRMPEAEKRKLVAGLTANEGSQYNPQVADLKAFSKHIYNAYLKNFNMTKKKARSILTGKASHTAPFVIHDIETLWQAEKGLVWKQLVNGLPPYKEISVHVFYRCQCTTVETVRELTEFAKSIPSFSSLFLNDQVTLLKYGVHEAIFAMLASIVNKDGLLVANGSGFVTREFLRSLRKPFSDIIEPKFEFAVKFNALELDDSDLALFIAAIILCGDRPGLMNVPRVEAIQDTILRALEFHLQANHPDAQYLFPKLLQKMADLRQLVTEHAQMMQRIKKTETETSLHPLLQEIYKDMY
# Protocol: The potency of substances which bind to human PPARdelta and activate it in an agonistic manner is analyzed using a stably transfected HEK cell line (HEK=human embryo kidney) which is referred to here as PPARdelta reporter cell line. In analogy to the assay described for PPARalpha, the PPARdelta reporter cell line also contains two genetic elements, a luciferase reporter element (pdeltaM-GAL4-Luc-Zeo) and a PPARdelta fusion protein (GR-GAL4-humanPPARdelta-LBD) which mediates expression of the luciferase reporter element depending on a PPARdelta ligand. The stably and constitutively expressed fusion protein GR-GAL4-humanPPARdelta-LBD binds in the cell nucleus of the PPARdelta reporter cell line via the GAL4 protein portion to the GAL4 DNA binding motifs 5′-upstream of the luciferase reporter element which is stably integrated in the genome of the cell line. There is only little expression of the luciferase reporter gene in the absence of a PPARdelta ligand if fatty acid-depleted fetal calf serum (cs-FCS) is used in the assay. PPARdelta ligands bind and activate the PPARdelta fusion protein and thereby stimulate expression of the luciferase reporter gene. The luciferase which is formed can be detected by means of chemiluminescence via an appropriate substrate.
# The production of the stable PPARdelta reporter cell line is based on a stable HEK-cell clone which was stably transfected with a luciferase reporter element. This step was already described above in the section “construction of the PPARalpha reporter cell line”. In a second step, the PPARdelta fusion protein (GR-GAL4-humanPPARdelta-LBD was stably introduced into this cell clone. For this purpose, the cDNA coding for the N-terminal 76 amino acids of the glucocorticoid receptor (Accession #P04150) was linked to the cDNA section coding for amino acids 1-147 of the yeast transcription factor GAL4 (Accession #P04386). The cDNA of the ligand-binding domain of the human PPARdelta receptor (amino acids S139-Y441; Accession #L07592) was cloned in at the 3′-end of this GR-GAL4 construct. The fusion construct prepared in this way (GR-GAL4-humanPPARdelta-LBD) was recloned into the plasmid pcDNA3 (Invitrogen) in order to enable constitutive expression by the cytomegalovirus promoter. This plasmid was linearized with a restriction endonuclease and stably transfected into the previously described cell clone containing the luciferase reporter element. The resulting PPARdelta reporter cell line which contains a luciferase reporter element and constitutively expresses the PPARdelta fusion protein (GR-GAL4-human PPARdelta-LBD) was isolated by selection with zeocin (0.5 mg/ml) and G418 (0.5 mg/ml).
# The activity of PPARdelta agonists is determined in a 3-day assay in exact analogy to the procedure already described for the PPARalpha reporter cell line except that the PPARdelta reporter cell line and a specific PPARdelta agonist was used as a standard to control test efficacy. […] Compounds of the invention of the formula I activate the PPARdelta receptor.
# [2] = test system: diabetic animal model; conditions: cited from earlier work
# [3] = test system: obese, insulin resistant rhesus monkeys; conditions: cited from earlier work
# [4] = test system: cynomolgus monkeys; conditions: cited from earlier work
# [5] = test system: rhesus monkeys; conditions: cited from earlier work
# [6] = test system: healthy volunteers; conditions: two weeks clinical trials in healthy volunteers; cited from earlier work
smiles,measurement,setting,value
"COc1ccc2oc(COc3ccc(S(=O)(=O)Nc4nnc(C(C)C)s4)cc3)cc2c1 [Example 12, N-(5-Isopropyl-[1,3,4]thiadiazol-2-yl)-4-(5-methoxy-benzofuran-2-ylmethoxy)-benzenesulfonamide]",EC50,[1],480 nM
CCCc1c(OCCCOc2ccc(OCC(=O)O)cc2)ccc(C(C)=O)c1O [Example L-165041],plasma cholesterol,[2],raises plasma cholesterol
Cc1cc(SCc2sc(-c3ccc(C(F)(F)F)cc3)nc2C)ccc1OCC(=O)O [GW501516],HDL-cholesterol,[3],raises HDL-cholesterol
same,plasma LDL-cholesterol,[3],decreases plasma LDL-cholesterol
same,insulin levels,[3]; plasma,decreases
same,triglycerides,[3]; plasma,decreases
CCCc1c(OCCCSc2nnc(SCC(=O)O)s2)ccc(C(C)=O)c1O [YM-16638],plasma lipids,[4],significantly lowers plasma lipids
same,plasma lipids,[5],significantly lowers plasma lipids
same,plasma lipids,[6],acts in a similar manner
